This note sets out measurements from US20240270786A1, “STEROID COMPOUNDS” (Epirium Bio Inc., priority 2022, published 2024).

Several values for one entry are separate records, joined by “and”; a condition that tells them apart may be missing. Equal values may be shown once.

The subject of data set [1] is PGC-1α expression in C2C12 cells. Kind of data set: In vitro PGC-1α expression in C2C12 cells (cell ELISA). Type of data set: cell-based. To be noted: 0.01 nM, 5000 cells/well, OD @ 650 nm, DMSO control = 100. Here is the method:
Culture conditions: DMEM containing 25 mM glucose with 10% FBS supplementation; grown at 37° C. and 5% CO2.
Drugs: (+)-Epicatechin, AICAR (direct activator of AMPK).
Assay Conditions: C2C12 cells were cultured in DMEM supplemented in 10% FBS upto 80% confluence. The cells were further trypsinized and seeded into a 96 well plate at a density of 5000 cells/well (well volume—100 μL) (Day 0). Following attachment, the cells were allowed to reach 80-90% confluence in the plate (typically 48 hours post seeding) and further differentiated using DMEM+2% Horse Serum (200 μL/well). The media was changed every day or at least every alternate day for 5 days to allow myoblasts to differentiate into myotubes. On day 7 (post seeding), the cells were treated with standards and test compounds for PGC-1 α assay.
PGC-1α assay: For the detection of PGC-1a, the cells were incubated with 0.5 μg/ml primary antibody (Merck, WH0010891M3) in PBS-T containing 5% BSA at 4° C. overnight. The cells were then washed three times with PBS-T for 5 minutes and incubated with 1:1000 dilution secondary antibody (Anti-rabbit IgG, HRP-linked Antibody, Cell Signaling) in PBS-T with 1% BSA for 1 hour at RT. Cells were washed three times with PBS-T for 5 minutes The cells were incubated with 100 μl TMB substrate solution for 30 minutes and the reaction was stopped with 100 μl of 2N H2SO4. […] (For plate optical density calculations, a background correction was taken at 540 nm). The final PGC-1a activation % is average of activation of 6 replicates.
(In general: ELISA stands for enzyme-linked immunosorbent assay.)

A short description of data set [2]: Pharmacokinetics: quantitative determination of compounds in mice brains. Type of data set: in vivo, C57BL/6 Mice. To be noted: C57BL/6, mouse, brain, 10 mg/kg PO single dose, vehicle 10% NMP. Here is the method:
C57BL/6 Mice, Age 7-9 weeks, body weight range 20-25 g were used. The mice were fasted overnight. Mice were dosed once a day for a single day at 10 mg/kg, 10 mg/kg. 6 time-points were used for whole blood. 10% NMP was used as a vehicle. 9 animals were used per treatment, with three groups of three animals each. Group 1 had time points at 15 and 60 minutes, Group 2 had time points at 30 and 120 minutes, and Group 3 had time points at 90 and 240 minutes. An Oral (PO) route was used. Plasma and brain samples were collected (brain sample collected at terminal time point). Plasma was collected through the centrifugation of whole blood at 10,000 rpm for 10 minutes at 4° C. Samples were stored at −80° C. until processing.
1.00 mg/mL in 100% MeOH PP vials (prepared at RT yellow light) at 2-8° C. were used as stock solution. 12.22-50000 ng/mL using 80% MeOH PP vials (prepared at RT yellow light) at 2-8° C. were used as working solution. 0.48-2000 ng/mL (prepared at RT yellow light) was used for the curve range. For Compounds 26, 40, and 50, 1.00 mg/mL of Compound 53 in 100% methanol Ria vials (Prepared at RT yellow light) was used as IS stock solution, and 80 ng/mL of Compound 53 in 80% methanol (Prepared at RT yellow light) was used as IS working solution. For Compound 36, 1.00 mg/mL of Compound 47 in 100% methanol Ria vials (Prepared at RT yellow light) was used as IS stock solution, and 80 ng/mL of Compound 47 in 80% methanol (Prepared at RT yellow light) was used as IS working solution. A linear, 1/×2 fit type was used. The injection volume was 10 μL for Compounds 26 and 36, and 5 μL for Compounds 40 and 50. Mobile Phase A was 0.1% Formic Acid in water at room temperature. Mobile Phase B was 100% methanol at room temperature. R0 wash solution was 80% methanol at room temperature. R3 wash solution was IPA/MeOH/ACN/water (1:1:1:1) at room temperature. The column was Agilent Eclipse 50*2.1 mm 1.8 μm and the instrument was Shimadzu LC-40 UPLC and AB Sciez 6500+ with LCMS002.
100 mg of brain tissue were weighed, 400 μL of Ice cold PBS was added, and samples were homogenated using polytron homogenizer. Before starting the experiment the blade was cleaned with NS, Methanol, Methanol: Water (50:50) followed by NS. Using a pipette with Methanol-rinsed pipette tips, homogenate 50 μL of each sample (calibration curve sample, QC samples and blank matrix) was aliquoted to labeled 1.5 ml Ependorfs. Using a pipette, 5.0 μL of IS of conc. 80 ng (Cocktail IS) was aliquoted to each standards and samples except Blank. All tubes were mixed on a multi-tube vortex for approximately 30 seconds. 1 ml of tert-butyl methyl ether (TBME) was added. All tubes were mixed on a multi-tube vortex for approximately 5 minutes then centrifuged for 10 min at 5,000 rpm, 4° C. The sample was kept in methanol containing dry ice for few seconds to freeze the Aqueous layer (flash freeze method). The upper organic layer was poured from the frozen tubes into the labeled 12×75-mm rial vials and evaporated to dryness under nitrogen using Liquid Evaporator (30° C., ˜15 psi, ˜10 mins). 200 μl of reconstitution solution (0.1% Formic Acid: MeOH (20:80 v/v) were added into each tube. The samples were vortexed for 30 seconds then transferred to amber glass injection vials for injection.
At the terminal time points, animals were euthanized after blood sample collection. Their skulls were opened and whole brains were separated and collected in previously labeled tubes. The tubes were then immediately transferred into liquid nitrogen container for snap freezing. Later the samples were stored at −80° C.

Consider `CN1C(=O)CC[C@@]2(C)C1=CCC1C2[C@@H](O)C[C@@]2(C)C1CC[C@@H]2NC(=O)C1CC1` (stereo partly drawn) [Compound 26, N-((4aR,5S,6aS,7S)-5-hydroxy-1,4a,6a-trimethyl-2-oxo-2,3,4,4a,4b,5,6,6a,7,8,9,9a,9b,10-tetradecahydro-1H-indeno[5,4-f]quinolin-7-yl)cyclopropanecarboxamide], for which the “% Activity (PGC-1α expression)” value in data set [1] is 129% and 146%. For the same molecule, in data set [2], the AUC(0-t) amounted to 487 ng·h/mL, the Cmax was 433 ng/mL and the Tmax worked out at 1 h.
With `CC(C)CCNC(=O)C1CCC2C3CC=C4N(C)C(=O)CC[C@]4(C)C3[C@@H](O)C[C@]12C` (stereo partly drawn) [Compound 36, (4aR,5S,6aS)-5-hydroxy-N-isopentyl-1,4a,6a-trimethyl-2-oxo-2,3,4,4a,4b,5,6,6a,7,8,9,9a,9b,10-tetradecahydro-1H-indeno[5,4-f]quinoline-7-carboxamide], the “% Activity (PGC-1α expression)” value in data set [1] was 133% and 130%. Moreover, in data set [2], the AUC(0-t) came out at 1640 ng·h/mL, the peak level (Cmax) was 1160 ng/mL and the Tmax is 1 h.
For `CNC(=O)[C@H]1CCC2C3CC=C4N(C)C(=O)CC[C@]4(C)C3[C@@H](O)C[C@@]21C` (stereo partly drawn) [Compound 40, (4aR,5S,6aS)-5-hydroxy-N,1,4a,6a-tetramethyl-2-oxo-2,3,4,4a,4b,5,6,6a,7,8,9,9a,9b,10-tetradecahydro-1H-indeno[5,4-f] quinoline-7-carboxamide], in data set [1], the “% Activity (PGC-1α expression)” value is 130% and 143%. In data set [2], the AUC(0-t) was found to be 2500 ng·h/mL, the maximum concentration (Cmax) came out at 1680 ng/mL and the Tmax is 1 h.

For orientation: AUC(0-t) means exposure summed from dosing to a finite time, without extrapolation to infinity. A higher AUC(0-t) goes with high exposure. Usually Cmax stands for the peak of the concentration-time curve. The term Tmax denotes the time at which the peak concentration occurs.
